Holding throughout (assay type): biochemical
Experiment [1] concerns the target T1, porcine heart citrate synthase (CS) (Sus scrofa, UniProt P00889).
T1 construct: porcine heart citrate synthase (CS); from tissue; host or cells: porcine heart
T1 sequence (P00889 28-464): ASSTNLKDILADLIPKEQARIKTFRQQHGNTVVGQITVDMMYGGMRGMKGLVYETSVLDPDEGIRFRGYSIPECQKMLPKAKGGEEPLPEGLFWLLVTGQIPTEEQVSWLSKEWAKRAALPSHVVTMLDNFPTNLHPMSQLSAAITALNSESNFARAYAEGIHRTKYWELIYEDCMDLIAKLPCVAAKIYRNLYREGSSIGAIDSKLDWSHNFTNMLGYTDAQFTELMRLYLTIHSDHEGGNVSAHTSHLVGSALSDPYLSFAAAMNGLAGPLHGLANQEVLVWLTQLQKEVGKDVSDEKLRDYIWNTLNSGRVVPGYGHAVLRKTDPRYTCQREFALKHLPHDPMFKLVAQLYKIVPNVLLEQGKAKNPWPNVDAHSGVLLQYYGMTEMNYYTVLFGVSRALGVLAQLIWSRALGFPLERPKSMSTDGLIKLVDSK
As to the kind of experiment: Citrate synthase thermal aggregation (turbidity at 360 nm). Particulars: CS 96 μg/mL, 45° C., standard deviation in parenthesis. In outline:
(§1)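 Heat-induced aggregation followed as OD360 for 1 h, cycled every 30 s: citrate synthase 96 μg/mL in HEPES/KCl/(NH4)2SO4 buffer pH 7.8 at 45° C; FGF-1 50 μg/mL in phosphate/NaCl pH 7.2 at 50° C. Rate taken as maximum slope of OD versus time, compared with protein without additive.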

For experiment [2], the target named is human acidic fibroblast growth factor (FGF-1) (Homo sapiens, UniProt P05230). Briefly: FGF-1 thermal aggregation (turbidity at 360 nm). Particulars: FGF-1 50 μg/mL, 50° C., standard deviation in parenthesis. In outline: as §1
A further experiment has as its target T2, Bovine insulin (Bos taurus, UniProt P01317).
T2 construct: purchased Sigma, St. Louis, Mo., USA
As to the kind of experiment: Insulin aggregation (turbidity at 360 nm) induced by DTT. As to conditions: for inhibition index: Insulin 0.25 mg/mL, 25° C., DTT, compound 100×, standard deviation in parenthesis. In outline:
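Bovine insulin was dissolved in pH 7.0 PBS (50 mM sodium biphosphate, 100 mM sodium chloride) at 0.25 mg/mL (4.39E-5 M). Test compounds were added, then aggregation was induced with 20 μL of 1 M DTT […]. Turbidity at 360 nm was followed for 1 hour at 25° C. and compared with insulin lacking the compound.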

The target of experiment [3] is T3, porcine somatotropin (pST) (Sus scrofa, UniProt P01248).
T3 construct: purchased Pfizer, Inc., Groton, Conn., USA (provided, not bought)
T3 sequence (P01248 27-216): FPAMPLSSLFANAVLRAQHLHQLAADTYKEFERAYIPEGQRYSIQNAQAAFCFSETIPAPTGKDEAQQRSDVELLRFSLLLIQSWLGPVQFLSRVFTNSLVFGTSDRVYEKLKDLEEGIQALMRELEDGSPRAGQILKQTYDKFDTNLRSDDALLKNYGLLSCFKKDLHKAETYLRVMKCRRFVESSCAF
As to the kind of experiment: Porcine somatotropin aggregation (turbidity at 360 nm) with PEG 8000. As to conditions: pST 1.27 mg/mL, 60° C., standard deviation in parenthesis. In outline:
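OD360 was followed for 1 h against protein without test compound. pST (1.27 mg/mL, pH 6.1 phosphate) at 60° C with 20 mg/mL PEG 8000; lysozyme (0.4 mg/mL, pH 8.2 Tris/EDTA) at 25° C and HLF (0.4 mg/mL, pH 7.4 HEPES) at 43° C with 1.27E-4 M DTT; ADH (1 mg/mL) 37° C, 7.76E-5 M Cu(OP)2.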

Sequence of human acidic fibroblast growth factor (FGF-1) (P05230 whole entry): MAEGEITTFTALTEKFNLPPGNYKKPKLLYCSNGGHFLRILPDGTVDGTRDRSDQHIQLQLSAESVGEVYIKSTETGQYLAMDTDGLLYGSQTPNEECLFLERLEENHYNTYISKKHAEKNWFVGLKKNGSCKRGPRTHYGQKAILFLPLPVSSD
T2 sequence (P01317 25-54 limits assumed): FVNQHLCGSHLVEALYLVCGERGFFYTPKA
T2 sequence (P01317 85-105 limits assumed): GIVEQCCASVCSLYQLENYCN

`NCCCN` [1,3-diaminopropane]: the inhibition index in experiment [1] (compound 10,000X) is recorded as 0.7 (0.3); in experiment [1] (compound 50,000X) it was 7.7; in experiment [2] (compound 1,000×), 2.2 (0.3); in experiment [2] (compound 10,000×), 3.5 (2.3); at Bovine insulin, 1.3 (0.3); in experiment [3] (compound 100X), 0.6 (0.0). Also, in experiment [3] (compound 2,000X), the inhibition index was 1.7 (0.2).
Take `NCCCCN` [1,4-diaminobutane]: the inhibition index in experiment [1] (compound 10,000X) is listed as 0.9 (0.3); in experiment [1] (compound 50,000X), 4.0 (2.3); in experiment [2] (compound 1,000×) it was 2.5 (1.3); in experiment [2] (compound 10,000×) it was 33.7 (6.6); at Bovine insulin it was 1.4 (0.4); in experiment [3] (compound 100X), 0.6 (0.1). The inhibition index in experiment [3] (compound 2,000X) is on record as 1.4 (0.4).
For `NCCCCCN` [1,5-diaminopentane], the inhibition index was 0.8 (0.2) in experiment [1] (compound 10,000X); 8.3 (4.5) in experiment [1] (compound 50,000X); 3.3 (0.7) in experiment [2] (compound 1,000×); 46.5 (19.8) in experiment [2] (compound 10,000×); 1.5 (0.6) on Bovine insulin; 0.8 (0.3) in experiment [3] (compound 100X). Moreover, in experiment [3] (compound 2,000X), the inhibition index is 1.7 (0.4).
`NCCCCCCN` [1,6-diaminohexane]: the inhibition index is 0.6 (0.2) in experiment [1] (compound 10,000X); 4.8 (1.5) in experiment [1] (compound 50,000X); 1.6 (0.6) in experiment [2] (compound 1,000×); 27.0 (9.8) in experiment [2] (compound 10,000×); 1.5 (0.3) at Bovine insulin; 0.6 (0.1) in experiment [3] (compound 100X). In addition, the inhibition index in experiment [3] (compound 2,000X) was 1.9 (0.2).
`NCCCCCCCN` [1,7-diaminoheptane]: the inhibition index in experiment [1] (compound 10,000X) is 0.6 (0.2); in experiment [1] (compound 50,000X) it was 1.7 (0.7); in experiment [2] (compound 1,000×) it was 2.0 (0.7); in experiment [2] (compound 10,000×) it was 6.2 (2.4); at Bovine insulin it was 2.7 (1.0); in experiment [3] (compound 100X), 0.7 (0.0). For the same compound, the inhibition index in experiment [3] (compound 2,000X) is given as 1.6( 0.7). Further, the “inhibition of insulin aggregation, in words” value on Bovine insulin is listed as “weak inhibitions”.
As to `NCCCC(=O)O` [4-aminobuytrate, 4-aminobutyric acid], the inhibition index is 0.6 (0.1) in experiment [1] (compound 10,000X); 1.2 (0.4) in experiment [1] (compound 50,000X); 1.5 (0.0) in experiment [2] (compound 1,000×); 1.4 (0.3) in experiment [2] (compound 10,000×); 1.2 (0.3) at Bovine insulin; 0.3 (0.0) in experiment [3] (compound 100X). Moreover, the inhibition index in experiment [3] (compound 2,000X) is 1.1 (0.2).
For `NCCCCC(=O)O` [5-aminovalerate, 5-aminovaleric acid], the inhibition index in experiment [1] (compound 10,000X) is 0.7 (0.1); in experiment [1] (compound 50,000X), 1.9 (0.7); in experiment [2] (compound 1,000×), 1.1 (0.2); in experiment [2] (compound 10,000×), 2.2 (1.4); at Bovine insulin it was 1.2 (0.1); in experiment [3] (compound 100X), 0.4 (0.0). In experiment [3] (compound 2,000X), the inhibition index is 0.7 (0.1).
For the compound `NCCCCCC(=O)O` [6-aminocaproate, 6-aminocaproic acid], the inhibition index is 0.5 (0.1) in experiment [1] (compound 10,000X); 1.5 (0.8) in experiment [1] (compound 50,000X); 2.2 (0.3) in experiment [2] (compound 1,000×); 2.4 (0.5) in experiment [2] (compound 10,000×); 1.4 (0.2) on Bovine insulin; 0.5 (0.1) in experiment [3] (compound 100X). In addition, the inhibition index in experiment [3] (compound 2,000X) is recorded as 1.2 (0.2).
With `NCCCCCCC(=O)O` [7-aminoheptanoate, 7-aminoheptanoic acid], the inhibition index is on record as 0.5 (0.1) in experiment [1] (compound 10,000X); 1.7 (0.4) in experiment [1] (compound 50,000X); 0.9 (0.4) in experiment [2] (compound 1,000×); 1.3 (0.1) in experiment [2] (compound 10,000×); 2.4 (1.0) at Bovine insulin; 0.4 (0.0) in experiment [3] (compound 100X). Besides, the inhibition index in experiment [3] (compound 2,000X) was 1.6 (0.2). The “inhibition of insulin aggregation, in words” value on Bovine insulin is on record as “weak inhibitions”.
As to pentaglycine, the inhibition index is on record as 0.6 (0.2) in experiment [1] (compound 1,000X), 1.0 (0.2) on Bovine insulin and 0.7 (0.2) in experiment [3] (compound 100X).

Source of the values: patent US20030125234A1, “Alteration of protein stability” (priority 2001, published 2003).
